Assay results from BindingDB's records for doi:10.1016/j.bmcl.2006.10.030 (Paris-Sud University, 2007).

Target: Triosephosphate isomerase (Homo sapiens, UniProt P60174)
Experiment: Inhibition of triosephosphate isomerase

Sequence of Triosephosphate isomerase (P60174 whole entry): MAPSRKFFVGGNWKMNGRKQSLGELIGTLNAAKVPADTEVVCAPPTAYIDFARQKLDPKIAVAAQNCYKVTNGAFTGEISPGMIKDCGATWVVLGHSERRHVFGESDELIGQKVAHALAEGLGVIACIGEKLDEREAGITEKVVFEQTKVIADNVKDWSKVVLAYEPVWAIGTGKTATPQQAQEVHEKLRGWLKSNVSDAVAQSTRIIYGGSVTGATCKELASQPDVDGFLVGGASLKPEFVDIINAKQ

SMILES | Ki [µM]
O=C(COP(=O)(O)O)NO [2-(hydroxyamino)-2-oxoethyl dihydrogen phosphate] | 3
N=C(COP(=O)(O)O)NO [Phosphoric acid mono-(N-hydroxycarbamimidoylmethyl) ester] | 4.5
NNC(=O)COP(=O)(O)O [Phosphoric acid monohydrazinocarbonylmethyl ester] | 111
O=C(CCP(=O)(O)O)NO [hydrogen 3-(hydroxyamino)-3-oxopropylphosphonate] | 160
NC(CC(=O)NO)P(=O)(O)O (stereo not given) [hydrogen [1-azaniumyl-2-(hydroxycarbamoyl)ethyl]phosphonate] | > 500
